In paper PMC4379580 (Viruses, 2015):

How the values were obtained:
WT-His-P9-1 [1] = molecular target: T1, WT-His-P9-1 (Southern rice black-streaked dwarf virus, UniProt B2LHU4); test: intrinsic fluorescence quenching titration; assay type: binding; settings: 298 K, pH 7.4, 20 μM protein, excitation 275 nm, Hill equation
T1 construct: protein encoded by first ORF of segment S9 (P9)

TR-ΔN6-His-P9-1 = TR-ΔN6-His-P9-1 (Southern rice black-streaked dwarf virus, UniProt B2LHU4); settings: 298 K, 20 μM protein, excitation 275 nm, Hill equation
TR-ΔC23-His-P9-1 = TR-ΔC23-His-P9-1 (Southern rice black-streaked dwarf virus, UniProt B2LHU4); settings: 298 K, 20 μM protein, excitation 275 nm, Hill equation
WT-His-P9-1 [2] = molecular target: WT-His-P9-1 (Southern rice black-streaked dwarf virus, UniProt B2LHU4, S138T); test: biochemical

CCOP(=O)(OCC)C(Nc1nc2c(C)cccc2s1)c1ccccc1F (stereo not shown) [DFL, dufulin] was tested, and the “Binding parameters / KA (M^-1)” value (WT-His-P9-1 [1]) was 1 × 10^5.061, the “Binding parameters / KA (M^-1)” value (TR-ΔN6-His-P9-1) was 1 × 10^6.421 and the “Binding parameters / KA (M^-1)” value (TR-ΔC23-His-P9-1) was 1 × 10^4.470. It also gave a Kd (WT-His-P9-1 [2]) of 9.73 µM.
